Source: patent US7348425B2, “Inhibitors of HCV replication” (Bristol-Myers Squibb Company, priority 2004, dated 2008)
Read-outs that look alike come from different tables or passages of the source.

Key:
[1] = biological target: T1, HCV NS5B RdRp genotype 1b (Hepatitis C virus genotype 1b, UniProt Q9WMX2); assay: Standard HCV NS5B RdRp enzyme assay; format: biochemical; conditions: standard method
T1 construct: The protein was expressed with an 18 amino acid C-terminal truncation to enhance the solubility; made in house; host or cells: E. coli BL21 (DE3), pET21a
T1 sequence (Q9WMX2 2420-2992): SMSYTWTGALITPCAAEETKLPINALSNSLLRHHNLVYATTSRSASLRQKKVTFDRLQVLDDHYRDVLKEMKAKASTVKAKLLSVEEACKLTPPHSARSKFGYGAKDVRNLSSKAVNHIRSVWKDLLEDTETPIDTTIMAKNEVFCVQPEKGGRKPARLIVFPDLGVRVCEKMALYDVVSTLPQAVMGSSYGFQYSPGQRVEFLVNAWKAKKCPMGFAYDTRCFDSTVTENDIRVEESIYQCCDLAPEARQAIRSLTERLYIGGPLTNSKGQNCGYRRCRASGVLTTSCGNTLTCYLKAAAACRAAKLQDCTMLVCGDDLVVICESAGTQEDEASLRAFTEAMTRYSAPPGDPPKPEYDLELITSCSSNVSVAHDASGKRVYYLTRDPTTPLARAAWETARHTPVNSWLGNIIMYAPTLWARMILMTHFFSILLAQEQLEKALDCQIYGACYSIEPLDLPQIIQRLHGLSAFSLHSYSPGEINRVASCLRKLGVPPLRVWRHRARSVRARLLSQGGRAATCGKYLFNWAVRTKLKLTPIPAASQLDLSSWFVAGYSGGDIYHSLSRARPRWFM
Procedure: HCVNS5B RdRp cloning, expression, and purification. The cDNA encoding the NS5B protein of HCV, genotype 1b, was cloned into the pET21a expression vector. The protein was expressed with an 18 amino acid C-terminal truncation to enhance the solubility. The E. coli competent cell line BL21 (DE3) was used for expression of the protein. Cultures were grown at 37° C. for ˜4 hours until the cultures reached an optical density of 2.0 at 600 nm. The cultures were cooled to 20° C. and induced with 1 mM IPTG. Fresh ampicillin was added to a final concentration of 50 μg/ml and the cells were grown overnight at 20° C.
Cell pellets (3 L) were lysed for purification to yield 15-24 mgs of purified NS5B. The lysis buffer consisted of 20 mM Tris-HCl, pH 7.4, 500 mM NaCl, 0.5% triton X-100, 1 mM DTT, 1 mM EDTA, 20% glycerol, 0.5 mg/ml lysozyme, 10 mM MgCl2, 15 ug/ml deoxyribonuclease I, and Complete TM protease inhibitor tablets (Roche). After addition of the lysis buffer, frozen cell pellets were resuspended using a tissue homogenizer. To reduce the viscosity of the sample, aliquots of the lysate were sonicated on ice using a microtip attached to a Branson sonicator. The sonicated lysate was centrifuged at 100,000×g for 1 hr at 4° C. and filtered through a 0.2 μm filter unit (Corning).
The protein was purified using three sequential chromatography steps: Heparin sepharose CL-6B, polyU sepharose 4B, and Hitrap SP sepharose (Pharmacia). The chromatography buffers were identical to the lysis buffer but contained no lysozyme, deoxyribonuclease I, MgCl2 or protease inhibitor and the NaCl concentration of the buffer was adjusted according to the requirements for charging the protein onto the column. Each column was eluted with a NaCl gradient which varied in length from 5-50 column volumes depending on the column type. After the final chromatography step, the resulting purity of the enzyme is >90% based on SDS-PAGE analysis. The enzyme was aliquoted and stored at −80° C.
Standard HCV NS5B RdRp enzyme assay. HCV RdRp genotype Ib assays were run in a final volume of 60 μl in 96 well plates (Costar 3912). The assay buffer is composed of 20 mM Hepes, pH 7.5, 2.5 mM KCl, 2.5 mM MgCl2, 1 mM DTT, 1.6 U RNAse inhibitor (Promega N2515), 0.1 mg/ml BSA (Promega R3961), and 2% glycerol. All compounds were serially diluted (3-fold) in DMSO and diluted further in water such that the final concentration of DMSO in the assay was 2%. HCV RdRp genotype 1b enzyme was used at a final concentration of 28 nM. A polyA template was used at 6 nM, and a biotinylated oligo-dT12 primer was used at 180 nM final concentration. Template was obtained commercially (Amersham 27-4110). Biotinylated primer was prepared by Sigma Genosys. ^3H-UTP was used at 0.6 μCi (0.29 μM total UTP). Reactions were initiated by the addition of enzyme, incubated at 30° C. for 60 min, and stopped by adding 25 μl of 50 mM EDTA containing SPA beads (4 μg/μl, Amersham RPNQ 0007). Plates were read on a Packard Top Count NXT after >1 hr incubation at room temperature.
The IC50 values for compounds were determined using seven different [I]. IC50 values were calculated from the inhibition using the formula y=A+((B−A)/(1+((C/x)^D))). FRET Assay Preparation. To perform the HCV FRET screening assay, 96-well cell culture plates were used. The FRET peptide (Anaspec, Inc.) (Taliani et al., Anal. Biochem. 240:60-67 (1996), hereby incorporated by reference in its entirety) contains a fluorescence donor, EDANS, near one end of the peptide and an acceptor, DABCYL, near the other end. The fluorescence of the peptide is quenched by […] resonance energy transfer (RET) between the donor and the acceptor, but as the NS3 protease cleaves the peptide the products are released from RET quenching and the fluorescence of the donor becomes apparent. […]

HCV replicon = HCV replicon luciferase assay; format: cell-based, Hepatitis C virus
Procedure: To prepare plates, HCV replicon cells, with or without a Renilla luciferase reporter gene, were trypsinized and placed into each well of a 96-well plate with titrated test compounds added in columns 3 through 12; columns 1 and 2 contained a control compound (HCV protease inhibitor), and the bottom row contained cells without compound. The plates were then placed in a CO2 incubator at 37 degrees C.
Assays. Subsequent to addition of the test compounds described above (FRET Assay Preparation), at various times the plate was removed and Alamar blue solution (Trek Diagnostics, #00-100) was added per well as a measure of cellular toxicity. After reading in a Cytoflour 4000 instrument (PE Biosystems), plates were rinsed with PBS and then used for FRET assay by the addition of 30 ul of the FRET peptide assay reagent described above (FRET Assay Preparation) per well. The plate was then placed into the Cytoflour 4000 instrument which had been set to 340 excite/490 emission, automatic mode for 20 cycles and the plate read in a kinetic mode. Typically, the signal to noise using an endpoint analysis after the reads was at least three-fold. Alternatively, after Alamar blue reading, plates were rinsed with PBS, 50 ul of DMEM (high glucose) without phenol red was added and plates were then used for luciferase assay using the Promega Dual-Glo Luciferase Assay System.
Compound analysis was determined by quantification of the relative HCV replicon inhibition and the relative cytotoxicity values. To calculate cytoxicity values, the average Alamar Blue fluorescence signals from the control wells were set as 100% non-toxic. The individual signals in each of the compound test wells were then divided by the average control signal and multiplied by 100% to determine […]. To calculate the HCV replicon inhibition values, an average background value was obtained from the two wells containing the highest amount of HCV protease inhibitor at the end of the assay period. These numbers were similar to those obtained from naïve Huh-7 cells.
The background numbers were then subtracted from the average signal obtained from the control wells and this number was used as 100% activity. The individual signals in each of the compound test wells were then divided by the averaged control values after background subtraction and multiplied by 100% to determine percent activity. EC50 values for a protease inhibitor titration were calculated as the concentration which caused a 50% reduction in FRET or luciferase activity. The two numbers generated for the compound plate, percent cytoxicity and percent activity were used to determine compounds of interest for further analysis.

[2] = Hepatitis C virus, luciferase method, read-out: EC50
[3] = luciferase method, read-out: EC50

| SMILES | IC50 [1] | EC50 (HCV replicon; [2]) | EC50 (HCV replicon; Hepatitis C virus) | EC50 (HCV replicon; [3]) |
| --- | --- | --- | --- | --- |
| O=C(O)/C=C/c1ccc(NC(=O)C2(NC(=O)c3ccc4c(C5CCCCC5)c5n(c4c3)CCCc3ncccc3-5)CCCC2)cc1 | 100 to 1000 nM | < 100 nM | – | – |
| O=C(O)c1ccc2c(C3CCCCC3)c3n(c2c1)C(O)c1ccccc1-3 (stereo not shown) | > 1000 nM | > 10000 nM | – | – |
| O=C(O)/C=C/c1cccc(-c2nc(C3(NC(=O)c4ccc5c(C6CCCCC6)c6n(c5c4)CC=Cc4ccccc4-6)CCCC3)no2)c1 [Example 26] | > 1000 nM | 100 to 1000 nM | – | – |
| O=C(O)c1ccc2c(C3CCCCC3)c3n(c2c1)CCCc1ccccc1-3 [Example 3, 13-cyclohexyl-6,7-dihydro-5H-indolo[2,1-a][2]benzazepine-10-carboxylic acid] | 100 to 1000 nM | 100 to 1000 nM | – | – |
| O=C(O)c1ccc2c(C3CCCCC3)c3n(c2c1)CC(C(=O)N1CCOCC1)=Cc1ccccc1-3 | 100 to 1000 nM | – | 100 to 1000 nM | – |
| NC(=O)C1Cc2ccccc2-c2c(C3CCCCC3)c3ccc(C(=O)O)cc3n2C1 (stereo not shown) | 100 to 1000 nM | 100 to 1000 nM | – | – |
| O=C(O)c1ccc2c(C3CCCCC3)c3n(c2c1)CCCc1occc1-3 | > 1000 nM | 1000 to 10000 nM | – | – |
| CN(C)S(=O)(=O)NC(=O)c1ccc2c(C3CCCCC3)c3n(c2c1)CC(C(=O)N1CCN(c2ccncc2)CC1)Cc1ccccc1-3 (stereo not shown) | 100 to 1000 nM | < 100 nM | – | – |
| O=C(O)CCCc1nc(C2(NC(=O)c3ccc4c(C5CCCCC5)c5n(c4c3)CC=Cc3ccccc3-5)CCCC2)no1 [Example 23, 3-[1-[[(13-cyclohexyl-7H-indolo[2,1-a][2]benzazepin-10-yl)carbonyl]amino]cyclopentyl]-1,2,4-oxadiazole-5-butanoic acid] | > 1000 nM | 100 to 1000 nM | – | – |
| COC(=O)c1ccc2c(C3CCCCC3)c3n(c2c1)Cc1ccccc1-3 [Example 6, Methyl 11-cyclohexyl-6H-isoindolo[2,1-a]indole-3-carboxylate] | > 1000 nM | > 10000 nM | – | – |
| CN(C)S(=O)(=O)NC(=O)c1ccc2c(C3CCCCC3)c3n(c2c1)CC(C(=O)N1CCOCC1)=Cc1ccccc1-3 | 100 to 1000 nM | – | < 100 nM | – |
| O=C(O)c1ccc2c(C3CCCCC3)c3n(c2c1)CC(C(=O)N1CCC(N2CCCC2)CC1)Cc1ccccc1-3 (stereo not shown) | 100 to 1000 nM | 100 to 1000 nM | – | – |
| CN(C)C(=O)C1Cc2ccccc2-c2c(C3CCCCC3)c3ccc(C(=O)O)cc3n2C1 (stereo not shown) | 100 to 1000 nM | 100 to 1000 nM | – | – |
| CC(C)(C)OC(=O)/C=C/c1ccc(NC(=O)C2(NC(=O)c3ccc4c(C5CCCCC5)c5n(c4c3)CC(=O)Nc3cccnc3-5)CCCC2)cc1 | > 1000 nM | 100 to 1000 nM | – | – |
| COC(=O)/C=C/c1ccc(NC(=O)C2(NC(=O)c3ccc4c(C5CCCCC5)c5n(c4c3)CCOc3ccccc3-5)CCCC2)cc1 | > 1000 nM | – | – | – |
| COC(=O)/C=C/c1ccc(NC(=O)C2(NC(=O)c3ccc4c(C5CCCCC5)c5n(c4c3)CCOc3cccnc3-5)CCCC2)cc1 | > 1000 nM | 100 to 1000 nM | – | – |
| CN(C)S(=O)(=O)NC(=O)c1ccc2c(C3CCCCC3)c3n(c2c1)CC(C(=O)N1CCOCC1)Cc1ccccc1-3 (stereo not shown) | 100 to 1000 nM | < 100 nM | – | – |

| SMILES | IC50 [1] | EC50 (HCV replicon; [2]) | EC50 (HCV replicon; Hepatitis C virus) | EC50 (HCV replicon; [3]) |
| --- | --- | --- | --- | --- |
| CN(C)CCNC(=O)C1Cc2ccccc2-c2c(C3CCCCC3)c3ccc(C(=O)NS(=O)(=O)N(C)C)cc3n2C1 (stereo not shown) | 100 to 1000 nM | 100 to 1000 nM | – | – |
| O=C(O)c1ccc2c(C3CCCCC3)c3n(c2c1)CC(C(=O)N1CCC(O)CC1)Cc1ccccc1-3 (stereo not shown) | 100 to 1000 nM | 100 to 1000 nM | – | – |
| COC(=O)c1ccc2c(C3CCCCC3)c3n(c2c1)CC(C(=O)N1CCN(c2ccncc2)CC1)Cc1ccccc1-3 (stereo not shown) | > 1000 nM | 100 to 1000 nM | – | – |
| O=C(O)c1ccc2c(C3CCCCC3)c3c4ccccc4cc(C(=O)O)n3c2c1 | > 1000 nM | > 10000 nM | – | – |
| O=C(O)c1ccc2c(C3CCCCC3)c3n(c2c1)CC(C(=O)N1CCOCC1)Cc1ccccc1-3 (stereo not shown) [drawing 113] | 100 to 1000 nM | – | – | 100 to 1000 nM |
| O=C1Cn2c(c(C3CCCCC3)c3ccc(C(=O)O)cc32)-c2ccccc2N1 [Example 21, 13-cyclohexyl-6,7-dihydro-6-oxo-5H-indolo[1,2-d][1,4]benzodiazepine-10-carboxylic acid] | 100 to 1000 nM | 100 to 1000 nM | – | – |
| CN(C)S(=O)(=O)NC(=O)c1ccc2c(C3CCCCC3)c3n(c2c1)CCCc1ccccc1-3 | 100 to 1000 nM | 100 to 1000 nM | – | – |
| O=C(O)c1ccc2c(C3CCCCC3)c3n(c2c1)CCCCNc1ccccc1-3 | > 1000 nM | 100 to 1000 nM | – | – |
| COC(=O)/C=C/c1ccc(NC(=O)C2(NC(=O)c3ccc4c(C5CCCCC5)c5n(c4c3)CC(=O)Nc3cccnc3-5)CCCC2)cc1 [drawing 98] | > 1000 nM | < 100 nM | – | – |
| CN(C)S(=O)(=O)NC(=O)c1ccc2c(C3CCCCC3)c3n(c2c1)CC(C(=O)N1CCCC(O)C1)Cc1ccccc1-3 (stereo not shown) | 100 to 1000 nM | 100 to 1000 nM | – | – |
| O=C(O)c1ccc2c(C3CCCCC3)c3n(c2c1)CC(C(=O)N1CCCC(O)C1)Cc1ccccc1-3 (stereo not shown) [drawing 119] | 100 to 1000 nM | – | – | 100 to 1000 nM |
| Cn1cnc(S(=O)(=O)NC(=O)c2ccc3c(C4CCCCC4)c4n(c3c2)CCCc2ccccc2-4)c1 | > 1000 nM | 1000 to 10000 nM | – | – |
| O=C(O)c1ccc2c(C3CCCCC3)c3n(c2c1)CC(C(=O)NCCO)Cc1ccccc1-3 (stereo not shown) | 100 to 1000 nM | 100 to 1000 nM | – | – |
| COC(=O)c1ccc2c(C3CCCCC3)c3n(c2c1)CC(C(=O)N1CCOCC1)=Cc1ccccc1-3 | > 1000 nM | 1000 to 10000 nM | – | – |
| O=C(O)c1ccc2c(C3CCCCC3)c3n(c2c1)CC(C(=O)N1CCCCC1)Cc1ccccc1-3 (stereo not shown) [drawing 118] | 100 to 1000 nM | – | – | 100 to 1000 nM |
| O=C(O)C1=Cc2ccccc2-c2c(C3CCCCC3)c3ccc(C(=O)O)cc3n2C1 | 100 to 1000 nM | > 10000 nM | – | – |
| O=C(O)c1ccc2c(C3CCCCC3)c3n(c2c1)CC=Cc1ccccc1-3 [Example 18, 13-cyclohexyl-7H-indolo[2,1-a][2]benzazepine-10-carboxylic acid] | > 1000 nM | 1000 to 10000 nM | – | – |
